According to patent EP3248604A1, “AGENTS FOR MODULATION OF WNT-TCF SIGNALLING AND USES THEREOF” (UNIVERSITE DE GENEVE, priority 2016, dated 2017):

Tests used:
Type in all cases: cell-based, human
WNT-TCF targets [1] = test: RT-qPCR gene expression in HT29 cells; settings: 16h, batch 3, vs DMSO=1
Description: (§1) RT-qPCR was performed as in Melotti et al. (2014, supra) using BioRad equipment and reagents. Cells cultured in nitro were treated with the desired concentration of drug in DMEM-F12 and reduced serum (2.5% FBS) for 16h, unless otherwise noted, and collected in Trizol (Sigma) before total RNA extraction and cDNA synthesis. Primers were as in Table 1. HPRT (gene encoding Hypoxanthine phosphoribosyltransferase 1) and βACTIN were used as housekeeping controls for normalization.
(§2) Primary colon cells CC14, CC36 and mCC11, colon cancer cell lines DLD1, HT29, Ls174T, melanoma cell line MeWo, glioblastoma cell lines U87 and U251, and the lung cancer cell line H358 were cultured in DMEM-F12 with 10% FBS under standard in nitro conditions.

WNT-TCF targets [2] = test: RT-qPCR gene expression in CC14 primary colon cancer cells; parameters: cMYC expression: scale not given here
Description: as §1
Primary colon cells CC14 were cultured in DMEM-F12 with 10% FBS under standard in vitro conditions.
as §2

WNT-TCF targets [3] = test: RT-qPCR gene expression in CC36 primary colon cancer cells; settings: 16h, batch 3, vs DMSO=1
Description: as §1, §2

WNT-TCF targets [4] = test: RT-qPCR gene expression in U251 glioblastoma cells; settings: 16h, batch 3, vs DMSO=1
Description: as §1, §2

WNT-TCF targets [5] = test: RT-qPCR gene expression in H358 lung cancer cells; settings: 16h, batch 3, vs DMSO=1
Description: as §1, §2

Ls174T cells = test: Clonal spheroid assay, Ls174T; settings: Homo sapiens, LS174T, 16 h, read-out: IC50, number of stem cell-derived spheroids
Description: Cells were treated with different concentrations of compounds for 16h in 2D adherent culture, washed, harvested and plated in suspension with serum-free DMEM-F12 media with B27 supplement (1:50 dilution) at 1 cell/well in 96-well format in triplicates. Plated cells were monitored to ensure the presence of single cells in each well and spheroids counted and photographed after 10 days for each round.
To directly test for a long-lasting repression of WNT-TCF targets by CAP2 clonogenic properties of cancer stem cells were tested. DLD1 and LS174T cells were first treated with CAP2 in 2D culture in vitro followed by removal of the drug, washing with PBS, and plating under non-adherent 3D conditions for clonal spheroid growth in the absence of the drug. After primary spheroid growth, the spheroids were dissociated and replated as single cells for secondary and subsequent clonogenic spheroid formation, also in the absence of the compound of the invention. As negative control DMSO-treatment was used.

TCF targets = test: Microarray transcriptome analysis in Ls174T cells; settings: 16h
Description: Cells treated with compounds were collected in Trizol and RNA was harvested using standard protocols. Quality and quantity of RNA was checked using Nano Series (Agilent Technologies). Samples with a RNA Integrity Number (RIN) >9/10 were chosen and cDNA and cRNA samples were prepared using GeneChip IVT Express kit. Genechip hybridization was done using the same kit and applied to PrimeView U219 human array (Affymetrix) in the Genomic Platform at the Faculty of Medicine, University of Geneva.
To test the effects of CAP2 on the transcriptome in a genome-wide manner microarray analyses with Ls174T cells were performed as these have been previously used to determine the genome-wide changes driven by dnTCF activity (van der Flier et al., 2007, Gastroenterology, 132(2): 628-32), the genetic benchmark use here. Ls174T cells were treated with 5 µM CAP2 (batch 3) for 16h, and their transcriptome compared with that of controls treated with DMSO under the same conditions. This dose was chosen since it results in extended WNT-TCF target gene modulation (Table 6).

Epigenetic regulators = test: RT-qPCR gene expression in Ls174T cells, epigenetic regulators; parameters: key: ratio normalized to DMSO control = 1; settings: vs DMSO=1
Description: as §1
Nine components of the three pathways (WNT-TCF, BMP/TGFβ and chemokine/cytokine), and the top 6 repressed epigenetic regulators (ZMYND8, EED, SMARCAL1, TBLIXR1, SETD6 and TAF5L) (Figure 12) were tested for their modulation by dnTCF and their timed response to CAP2 treatment. […] DnTCF also repressed the expression of BMP4, SMAD6, IL8, CXCL3 and CXCL5, but expression of IL33 was enhanced. […] BMP4 and ID2 were also repressed at 2 and 4h but SMAD6 was repressed only at 4h. CXCL3 was already repressed at 2h, IL8 was little affected and IL33 and CXCL5 were enhanced at 2h. At 4 h only CXCL3 was repressed and the other three cytokine/chemokine genes tested (IL8, IL33 and CXCL5) were neither enhanced nor repressed. […] All values are normalized ratios with DMSO-controls, which were equated to 1 Table 14

[6] = CC14, 1.25µM, 16h, batch 3, vs DMSO=1
[7] = CC14, 2.5µM, 16h, batch 3, vs DMSO=1
[8] = CC14, 5µM, 16h, batch 3, vs DMSO=1
[9] = CC14, 10µM, 16h, batch 3, vs DMSO=1
[10] = Table 9, microarray, Ls174T, 5 µM (batch 3), vs DMSO
[11] = Table 10, Microarray, CAP2 5 µM
[12] = microarray, Ls174T, 5 µM, vs DMSO

Compound: CC1=C(C)C(=O)O[C@@H]([C@](C)(O)[C@]2(O)CC[C@@]3(O)[C@@H]4CC=C5CC=CC(=O)[C@]5(C)[C@H]4CC[C@]23C)C1 [CAP2]
- AXIN2 expression (WNT-TCF targets [1]; 1.25µM): 0.8
- LGR5 expression (WNT-TCF targets [1]; 1.25µM): 0.8
- AXIN2 expression (WNT-TCF targets [1]; 2.5µM): 0.9
- LGR5 expression (WNT-TCF targets [1]; 2.5µM): 0.7
- AXIN2 expression (WNT-TCF targets [1]; 5µM): 0.8
- LGR5 expression (WNT-TCF targets [1]; 5µM): 0.3
- AXIN2 expression (WNT-TCF targets [1]; 10µM): 0.4
- LGR5 expression (WNT-TCF targets [1]; 10µM): 0.1
- AXIN2 expression (WNT-TCF targets [2]; 100 nM, Example 2 cells (CC14)): 0.7
- LGR5 expression (WNT-TCF targets [2]; 100 nM, Example 2 cells (CC14)): 0.3
- cMYC expression (WNT-TCF targets [2]; 100 nM, Example 2 cells (CC14)): 0.2
- AXIN2 expression (WNT-TCF targets [2]; [6]): 0.9
- LGR5 expression (WNT-TCF targets [2]; [6]): 1.0
- AXIN2 expression (WNT-TCF targets [2]; [7]): 1.5
- LGR5 expression (WNT-TCF targets [2]; [7]): 0.8
- AXIN2 expression (WNT-TCF targets [2]; [8]): 0.7
- LGR5 expression (WNT-TCF targets [2]; [8]): 0.1
- AXIN2 expression (WNT-TCF targets [2]; [9]): 0.7
- LGR5 expression (WNT-TCF targets [2]; [9]): 0.03
- AXIN2 expression (WNT-TCF targets [3]; 1.25µM): 1.2
- AXIN2 expression (WNT-TCF targets [3]; 2.5µM): 0.6
- AXIN2 expression (WNT-TCF targets [3]; 5µM): 0.4
- AXIN2 expression (WNT-TCF targets [3]; 10µM): 0.4
- AXIN2 expression (WNT-TCF targets [4]; 1.25µM): 0.9
- LGR5 expression (WNT-TCF targets [4]; 1.25µM): 0.5
- AXIN2 expression (WNT-TCF targets [4]; 2.5µM): 0.8
- LGR5 expression (WNT-TCF targets [4]; 2.5µM): 0.3
- AXIN2 expression (WNT-TCF targets [4]; 5µM): 0.7
- LGR5 expression (WNT-TCF targets [4]; 5µM): 0.2
- AXIN2 expression (WNT-TCF targets [4]; 10µM): 0.5
- LGR5 expression (WNT-TCF targets [4]; 10µM): 0.2
- AXIN2 expression (WNT-TCF targets [5]; 1.25µM): 0.8
- LEF1 expression (WNT-TCF targets [5]; 1.25µM): 0.4
- AXIN2 expression (WNT-TCF targets [5]; 2.5µM): 0.7
- LEF1 expression (WNT-TCF targets [5]; 2.5µM): 0.6
- AXIN2 expression (WNT-TCF targets [5]; 5µM): 0.6
- LEF1 expression (WNT-TCF targets [5]; 5µM): 0.4
- AXIN2 expression (WNT-TCF targets [5]; 10µM): 0.4
- LEF1 expression (WNT-TCF targets [5]; 10µM): 0.2
- IC50 (Ls174T cells): < 1250 nM
- ASCL2 Fold change (TCF targets; [10]): -9
- AXIN2 Fold change (TCF targets; [10]): -4
- CDKN1A Fold change (TCF targets; [10]): 9
- LGR5 Fold change (TCF targets; [10]): -15
- cMYC Fold change (TCF targets; [10]): -10
- ASCL2 Fold change, Ls174T cells (TCF targets; [11]): -9.1
- AXIN2 Fold change, Ls174T cells (TCF targets; [11]): -4.1
- LGR5 Fold change, Ls174T cells (TCF targets; [11]): -15.1
- cMYC Fold change, Ls174T cells (TCF targets; [11]): -10.2
- share of the 106-gene set of TCF targets repressed by 1.5-fold or more (TCF targets; microarray, Ls174T, 5 µM): 70%
- downregulation of ASCL2 (TCF targets; [12]): 9 fold
- downregulation of AXIN2 (TCF targets; [12]): 4 fold
- downregulation of LGR5 (TCF targets; [12]): 15 fold
- EED expression (Epigenetic regulators; 5µM batch 3, 2h post-treatment): 1.5
- SETD6 expression (Epigenetic regulators; 5µM batch 3, 2h post-treatment): 2.0
- SMARCAL1 expression (Epigenetic regulators; 5µM batch 3, 2h post-treatment): 1.6
- TAF5L expression (Epigenetic regulators; 5µM batch 3, 2h post-treatment): 0.8
- TBL1XR1 expression (Epigenetic regulators; 5µM batch 3, 2h post-treatment): 2.6
- ZMYND8 expression (Epigenetic regulators; 5µM batch 3, 2h post-treatment): 1.3
- EED expression (Epigenetic regulators; 5µM batch 3, 4h post-treatment): 0.5
- SETD6 expression (Epigenetic regulators; 5µM batch 3, 4h post-treatment): 0.7
- SMARCAL1 expression (Epigenetic regulators; 5µM batch 3, 4h post-treatment): 0.8
- TAF5L expression (Epigenetic regulators; 5µM batch 3, 4h post-treatment): 0.3
- TBL1XR1 expression (Epigenetic regulators; 5µM batch 3, 4h post-treatment): 0.6
- ZMYND8 expression (Epigenetic regulators; 5µM batch 3, 4h post-treatment): 0.5
